# Results reported in patent US4863925A, “Cyclohexanedione derivative for hepatic disorders and a process for producing the same” (Nihon Nohyaku Co., Ltd., priority 1986, dated 1989).
# Tested on: hepatic disorder caused by carbon tetrachloride
# Assay: Effect of suppressing hepatic disorder caused by carbon tetrachloride (Test Example 1)
# Type: in vivo, mice (dd-strain, male)
# Parameters: key to Liver injury index: 0 = healthy, 2 = slight, 4 = evident injury, 6 = serious injury
# Conditions: 30 mg/kg p.o., 6 h before CCl4 0.05 ml/kg p.o., 24 h after CCl4, mean of five mice; for Liver injury index: 0 healthy, 2 slightly affected, 4 evidently observed injury, 6 serious injury; for P-GPT (plasma glutamic pyruvic transaminase activity): Reitman-Frankel, 2,000 or higher calculated as 2,000
# Method: Effect of suppressing hepatic disorder caused by carbon tetrachloride. […] The animals were sacrificed 24 hours after the administration of carbon tetrachloride, and the extent of liver injury was examined. On the other hand, blood was collected from the animal at the time of the sacrifice, and centrifuged to obtain plasma. The plasma glutamic pyruvic transminase (GPT) activity was determined according to the method of Reitman-Frankel. The activity was expressed in terms of Karmen Units (K.U.). The conditions of the liver were expressed in terms of liver injury index as follows. |Liver injury index | Condition of liver |0 Healthy liver |2 Slightly affected |4 Evidently observed injury |6 Serious injury Mice were used in groups of five of test were represented by the mean value. When the GPT activity was 2,000 units or higher, or further determination was made, the activity was calculated as 2,000 units for reasons of convenience.
SMILES,Liver injury index,P-GPT (plasma glutamic pyruvic transaminase activity)
CCN1CCN(CC)C2SC(=C3C(=O)CCCC3=O)SC21 (centres unmarked) [Compound No. 2],0.4,15 K.U.
CN1CCN(C)C2SC(=C3C(=O)CC(C)(C)CC3=O)SC21 (centres unmarked) [Compound No. 4],0,11 K.U.
CCCN1CCN(CCC)C2SC(=C3C(=O)CC(C)(C)CC3=O)SC21 (centres unmarked) [Compound No. 7],0,16 K.U.
Cc1ccc(C2CC(=O)C(=C3SC4C(S3)N(C)CCN4C)C(=O)C2)cc1 (centres unmarked) [Compound No. 43],0.2,24 K.U.
COc1ccc(C2CC(=O)C(=C3SC4NCCNC4S3)C(=O)C2)cc1 (centres unmarked) [Compound No. 53],0.1,13 K.U.
CN1CCN(C)C2SC(=C3C(=O)CC(c4ccco4)CC3=O)SC21 (centres unmarked) [Compound No. 79],0,30 K.U.
CN1CCN(C)C2SC(=C3C(=O)CCCC3=O)SC21 (centres unmarked) [compound 1],0.2,14 K.U.
CCN1CCN(CC)C2SC(=C3C(=O)CC(C)(C)CC3=O)SC21 (centres unmarked) [compound 6],0,19 K.U.
CCCN1CCN(CCC)C2SC(=C3C(=O)CCCC3=O)SC21 (centres unmarked) [compound 10],0,41 K.U.
CN1CCN(C)C2(C)SC(=C3C(=O)CCCC3=O)SC12 (centres unmarked) [compound 11],0.5,16 K.U.
"CN1CCN(C)C2(C)SC(=C3C(=O)CC(C)(C)CC3=O)SC12 (centres unmarked) [compound 12, 2-[1,2,5-trimethyl-2,5-diaza-7,9-dithiabicyclo(4.3.0)-nonane-8-ylidene]-5,5-dimethyl-1,3-cyclohexanedione]",0.4,33 K.U.
"CC1CNC2SC(=C3C(=O)CC(C)(C)CC3=O)SC2N1 (centres unmarked) [compound 14, 2-[3-methyl-2,5-diaza-7,9-dithiabicyclo-(4.3.0)-nonane-8-ylidene]-5,5-dimethyl-1,3-cyclohexanedione]",0.4,18 K.U.
CC1CC(=O)C(=C2SC3C(S2)N(C)CCN3C)C(=O)C1 (centres unmarked) [compound 18],1.2,22 K.U.
CCC(C)C1CC(=O)C(=C2SC3C(S2)N(C)CCN3C)C(=O)C1 (centres unmarked) [compound 21],0.1,23 K.U.
CCC1CCC(=O)C(=C2SC3C(S2)N(C)CCN3C)C1=O (centres unmarked) [compound 25],0.8,15 K.U.
"CN1CCN(C)C2SC(=C3C(=O)CC(c4ccccc4)CC3=O)SC21 (centres unmarked) [compound 26, 2-[2,5-dimethyl-2,5-diaza-7,9-dithiabicyclo(4,3, 0)-nonane-8-ylidene]-5-phenyl-1,3-cyclohexanedione]",0,12 K.U.
CCCN1CCN(CCC)C2SC(=C3C(=O)CC(c4ccccc4)CC3=O)SC21 (centres unmarked) [compound 28],0.2,39 K.U.
CN1CCN(C)C2SC(=C3C(=O)CC(c4ccccc4Cl)CC3=O)SC21 (centres unmarked) [compound 32],0.3,22 K.U.
CN1CCN(C)C2SC(=C3C(=O)CC(c4ccc(F)cc4)CC3=O)SC21 (centres unmarked) [compound 36],1.5,268 K.U.
Cc1ccccc1C1CC(=O)C(=C2SC3C(S2)N(C)CCN3C)C(=O)C1 (centres unmarked) [compound 41],0.4,213 K.U.
Cc1cccc(C2CC(=O)C(=C3SC4C(S3)N(C)CCN4C)C(=O)C2)c1 (centres unmarked) [compound 42],0,14 K.U.
Cc1ccc(C2CC(=O)C(=C3SC4N(C)CCN(C)C4(C)S3)C(=O)C2)cc1 (centres unmarked) [compound 47],0,24 K.U.
CCc1ccc(C2CC(=O)C(=C3SC4C(S3)N(C)CCN4C)C(=O)C2)cc1 (centres unmarked) [compound 48],0.3,18 K.U.
COc1ccccc1C1CC(=O)C(=C2SC3C(S2)N(C)CCN3C)C(=O)C1 (centres unmarked) [compound 51],0,81 K.U.
COc1cccc(C2CC(=O)C(=C3SC4C(S3)N(C)CCN4C)C(=O)C2)c1 (centres unmarked) [compound 52],0.1,14 K.U.

SMILES,Liver injury index,P-GPT (plasma glutamic pyruvic transaminase activity)
CCN1CCN(CC)C2SC(=C3C(=O)CC(c4ccc(OC)cc4)CC3=O)SC21 (centres unmarked) [compound 56],2.5,50 K.U.
CCCN1CCN(CCC)C2SC(=C3C(=O)CC(c4ccc(OC)cc4)CC3=O)SC21 (centres unmarked) [compound 57],0.2,142 K.U.
COc1ccc(C2CC(=O)C(=C3SC4N(C)CCN(C)C4(C)S3)C(=O)C2)cc1 (centres unmarked) [compound 59],0.1,16 K.U.
CCOc1ccc(C2CC(=O)C(=C3SC4C(S3)N(C)CCN4C)C(=O)C2)cc1 (centres unmarked) [compound 60],0.1,26 K.U.
CCOc1ccc(C2CC(=O)C(=C3SC4C(S3)N(CC)CCN4CC)C(=O)C2)cc1 (centres unmarked) [compound 61],1.5,494 K.U.
CCOc1ccc(C2CC(=O)C(=C3SC4N(C)CCN(C)C4(C)S3)C(=O)C2)cc1 (centres unmarked) [compound 63],0,15 K.U.
COc1ccc(C2CC(=O)C(=C3SC4C(S3)N(C)CCN4C)C(=O)C2)cc1OC (centres unmarked) [compound 65],1.6,347 K.U.
Cc1ccc(C2CC(=O)C(=C3SC4NCC(C)NC4S3)C(=O)C2)cc1 (centres unmarked) [compound 78],0.2,18 K.U.
CN1CCN(C)C2SC(=C3C(=O)CC(C4CCCCC4)CC3=O)SC21 (centres unmarked) [compound 80],1.0,405 K.U.
"CN1CCN(C)C2SC(=C3C(=O)CC(c4cccs4)CC3=O)SC21 (centres unmarked) [compound 82, 2-[2,5-dimethyl-2,5-diaza-7,9-dithiabicyclo-(4.3.0)-nonane-8-ylidene]-5-(2-thienyl)-1,3-cyclo hexanedione]",0.3,16 K.U.
CN1CCN(C)C2(C)SC(=C3C(=O)CC(c4ccco4)CC3=O)SC12 (centres unmarked) [compound 90],0,15 K.U.
COc1ccc(C2CC(=O)C(=C3SC4NCCNC4(C)S3)C(=O)C2)cc1 (centres unmarked) [compound 92],0.4,15 K.U.
CCOC(=O)C1C(=O)C(=C2SC3C(S2)N(C)CCN3C)C(=O)CC1c1ccc(C)cc1 (centres unmarked) [compound 102],1.5,319 K.U.
CCOC(=O)C1C(=O)C(=C2SC3C(S2)N(C)CCN3C)C(=O)CC1c1ccc(OC)cc1 (centres unmarked) [compound 103],1.0,18 K.U.
CCOC(=O)C1C(=O)C(=C2SC3C(S2)N(C)CCN3C)C(=O)CC1c1ccccc1Cl (centres unmarked) [compound 104],1.7,345 K.U.
CN1CCN(C)C2(C)SC(=C3C(=O)CC(c4cccs4)CC3=O)SC12 (centres unmarked) [compound 105],0,15 K.U.
C=CCN1CCN(CC=C)C2(C)SC(=C3C(=O)CC(C)(C)CC3=O)SC12 (centres unmarked) [compound 106],1.2,242 K.U.
CN1CCNC2SC(=C3C(=O)CC(c4ccco4)CC3=O)SC21 (centres unmarked) [compound 108],1.0,24 K.U.
CN1CCNC2SC(=C3C(=O)CC(c4cccs4)CC3=O)SC21 (centres unmarked) [compound 109],0,17 K.U.
CC1(C)CC(=O)C(=C2SC3NCCNC3(C)S2)C(=O)C1 (centres unmarked) [compound 111],1.0,14 K.U.
CCCN1CCN(CCC)C2SC(=C3C(=O)CC(c4ccccc4)C(C(=O)OCC)C3=O)SC21 (centres unmarked) [compound 114],2.2,26 K.U.
CCOC(=O)C1C(=O)C(=C2SC3C(S2)N(C)CCN3C)C(=O)CC1c1ccc(OCC)cc1 (centres unmarked) [compound 115],0,39 K.U.
"CN1CCNC2SC(=C3C(=O)CC(C)(C)CC3=O)SC21.Cl.Cl (centres unmarked) [compound 118, 2-[2-methyl-2,5-diaza-7,9-dithiabicyclo-(4,3,0)-nonane-8-ylidene]-5,5-dimethyl-1,3-cyclohexanedione dihydrochloride salt]",0,32 K.U.
CN1CCNC2SC(=C3C(=O)CC(c4ccccc4Cl)CC3=O)SC21 (centres unmarked) [compound 121],0,20 K.U.
